In patent publication US20250120399A1, “METHODS AND COMPOSITIONS FOR ALTERING METABOLITES IN VITIS SPP. AND PREVENTING PESTS AND PATHOGENS” (Impello Biosciences, Inc., priority 2022, published 2025):

Tests used:
Format in all cases: in vivo
[1] = test system: powdery mildew (Erysiphe necator); experiment: Powdery mildew on leaf and fruit under the microscope, 2021 field trial (Example 3); settings: cabernet sauvignon; approx. 5 mM MDJ at 50 gal/acre, four applications
Procedure: MDJ was applied to fields of grape to investigate the efficacy of MDJ in preventing bunch rot on (Botrytis cinerea) and powdery mildew (Erysiphe necator) on grapes. […] (1 liter) per 50 gallons of water (approximately a 5 mM solution of MDJ). The composition was then applied (at a rate of 50 gallons per acre) to three acres (1245 vines/acre) of a cabernet sauvignon variety grown in Napa Valley, CA. There was a total of four applications between June and September using a ground spray rig. Several leaf and fruit samples were collected to access the presence of powdery mildew under the microscope and compared to leaf and fruit of plants treated with the grower standard.

Aspergillus carbonarius [2] = experiment: Sour rot incidence and severity on black seedless grapes, 2022 field trial (Example 5); settings: for Sour rot clusters of High severity (PESSEV) / Sour rot clusters of Low severity (PESSEV) / Sour rot clusters of Medium severity (PESSEV): ABCDE; for Sour rot clusters of High severity (PESSEV): Aug. 10, 2022, high = >51%; for Sour rot clusters of Low severity (PESSEV): Aug. 10, 2022, low = <40% of cluster area; for Sour rot clusters of Medium severity (PESSEV): Aug. 10, 2022, medium = 41%-50%; for Sour rot infected clusters (PESINC): applications ABCDE, rated Aug. 10, 2022
Procedure: (§1) Field trials were conducted in California 2022 (a dry year) to investigate the efficacy of MDJ in preventing Sour Rot caused by Aspergillus carbonarius (also known as summer bunch rot, abbreviated ASPECA in Table 7). Black seedless grapes (Vitis labrusca) were used in this trial. Four vines were used per plot. The plots were arranged in a randomized complete block design with six replicates (plots) per treatment. The plots were sprayed five times (ABCDE) at a rate of 500 gal/AC.
Treatments consisted of MDJ at 32 oz and 48 oz/A. A treatment of Regalia® at 1.5 qt/100 gal and Stargus® at 2 qt/100 gal was included for comparative purposes. Application D occurred at 5-10% veraison. Application E occurred at 40% veraison.
(§2) Botrytis and powdery mildew were absent for the trial. An evaluation of sour rot was completed before the harvest. The area of an infected cluster was estimated into a percentage and categorized into three levels of severity: low (<40%), medium (41%-50%), and high (>51%). The majority of individual infected clusters had low severity.

Aspergillus carbonarius [3] = experiment: Sour rot incidence and severity on Kyoho grapes, 2022 field trial (Example 6); settings: for sour rot Incidence per plot (PESINC, clusters) / sour rot severity High (PESSEV, clusters) / sour rot severity Low (PESSEV, clusters) / sour rot severity Medium (PESSEV, clusters): applications ABCD; for sour rot severity High (PESSEV, clusters): high (>51%); for sour rot severity Low (PESSEV, clusters): low (<40% of cluster area infected); for sour rot severity Medium (PESSEV, clusters): medium (41%-50%)
Procedure: as §1, with “10). Kyoho” for “7). Black seedless”, “(Vitis vinifera×Vitis” for “(Vitis”, “Three” for “Four”, “treatment (24 plots total).” for “treatment.”, “four” for “five”, “(ABCD)” for “(ABCDE)”
Treatments consisted of MDJ at 32 oz and 48 oz/A. A treatment of Regalia® at 1.5 qt/100 gal and Stargus® at 2 qt/100 gal was included for comparative purposes.
as §2

Botrytis cinerea = Botrytis cinerea disease score (0-5) on inoculated hemp plants (Example 7); settings: at harvest, 8 replicates
Procedure: A Botrytis cinerea isolate was cultured onto potato-dextrose agar (PDA) and re-isolated by taking a mycelial plug from the edge of actively growing cultures every 2-3 weeks to maintain active growing culture. It was maintained at 20° C. under continuous light (˜[…] m^−2 s^−1). An inoculum was prepared by flooding a full grown B. cinerea PDA plate with DI water and 0.1% Tween-20 to create a suspension of fungal spores. Spore count was quantified.
In the first inoculation, a suspension of 1.2×10^4 spores of B. cinerea/mL was created, and 1.5 mL was applied to the top cola/underdeveloped inflorescence of each hemp plant in the first week of flowering. In the second inoculation, a suspension of 1.5×10^5 spores of B. cinerea/mL was created, and sucrose was added to 1% concentration, and the plants were sprayed until drip using a backpack sprayer.
Inoculated plants were placed in a controlled growth environment with a constant temperature of 20-25° C. and 50-70% relative humidity. (See Zhang et al., “Infection Assays of Tomato and Apple Fruit by the Fungal Pathogen Botrytis cinerea,” bio-protocol 2014; 4 (23): 1-4. See also, Bulger et al. Phytopathology 1987; 77 (8): 1225-1230 and Garfinkel, Plant Disease 2020; 104 (7): 2026.)
Treatments comprising 1 mM or 5 mM jasmonate (MDJ) were applied alone or alongside a biological (Continuum™). […]

CCCCCC1C(=O)CCC1CC(=O)OC (stereo not drawn) [MDJ, methyl dihydrojasmonate]
Control of powdery mildew vs grower standard [1]: the same, or better, control of powdery mildew as the grower standard
Sour rot clusters of High severity (PESSEV) (Aspergillus carbonarius [2]; 32 oz/a): 1.3— NUMBER
Sour rot clusters of Low severity (PESSEV) (Aspergillus carbonarius [2]; 32 oz/a): 7.2— NUMBER
Sour rot clusters of Medium severity (PESSEV) (Aspergillus carbonarius [2]; 32 oz/a): 5.3— NUMBER
Sour rot infected clusters (PESINC) (Aspergillus carbonarius [2]; 32 oz/a): 13.8— NUMBER
Sour rot clusters of High severity (PESSEV) (Aspergillus carbonarius [2]; 48 oz/a): 0.8— NUMBER
Sour rot clusters of Low severity (PESSEV) (Aspergillus carbonarius [2]; 48 oz/a): 6.2— NUMBER
Sour rot clusters of Medium severity (PESSEV) (Aspergillus carbonarius [2]; 48 oz/a): 5.3— NUMBER
Sour rot infected clusters (PESINC) (Aspergillus carbonarius [2]; 48 oz/a): 12.3— NUMBER
Control of sour rot compared to the rest of the treatments (Aspergillus carbonarius [2]; higher rate of MDJ Elicitor (48 oz/A)): most effective at controlling sour rot
sour rot Incidence per plot (PESINC, clusters) (Aspergillus carbonarius [3]; Aug. 17, 2022, 32 oz/a): 0.8— number
sour rot Incidence per plot (PESINC, clusters) (Aspergillus carbonarius [3]; Aug. 17, 2022, 48 oz/a): 1.2— number
sour rot severity High (PESSEV, clusters) (Aspergillus carbonarius [3]; Aug. 17, 2022, 32 oz/a): 0.0— number
sour rot severity High (PESSEV, clusters) (Aspergillus carbonarius [3]; Aug. 17, 2022, 48 oz/a): 0.0— number
sour rot severity Low (PESSEV, clusters) (Aspergillus carbonarius [3]; Aug. 17, 2022, 32 oz/a): 0.8— number
sour rot severity Low (PESSEV, clusters) (Aspergillus carbonarius [3]; Aug. 17, 2022, 48 oz/a): 0.8— number
Control of sour rot compared to the rest of the treatments (Aspergillus carbonarius [3]; lower rate of MDJ Elicitor (32 oz/A)): highest efficacy in controlling sour rot
sour rot severity Medium (PESSEV, clusters) (Aspergillus carbonarius [3]; Aug. 17, 2022, 32 oz/a): 0.0— number
sour rot severity Medium (PESSEV, clusters) (Aspergillus carbonarius [3]; Aug. 17, 2022, 48 oz/a): 0.3— number
Average Disease Score (0-5) (Botrytis cinerea; condition B, 1 mM MDJ foliar spray): 2.625
Average Disease Score (0-5) (Botrytis cinerea; condition C, 5 mM MDJ foliar spray): 2.250
